Reference: patent US20230201174A1, “COMBINATION OF FINERENONE AND A SGLT2 INHIBITOR FOR THE TREATMENT AND/OR PREVENTION OF CARDIOVASCULAR AND/OR RENAL DISEASES” (BAYER AKTIENGESELLSCHAFT, priority 2020, published 2023)

Legend:
[1] = test system: Wistar rats with activated renin-angiotensin-aldosterone system; experiment: In vivo assay for detecting natriuretic activity in conscious rats with activated RAAS; set-up: species or system rat; conditions: for Urinary Glucose concentration / Urinary K+ concentration / Urinary Na+ concentration / Urinary Volume/ body weight: 24 h urine, mean ± SEM
Experimental: Wistar rats (ca. 250-500 g body weight) were kept with free access to feed (Altromin) and drinking water. […] This sodium-reduced feed causes an activation of the RAAS in the animals during the 3 days run-in phase and therefore mimics a neuroendocrine activation which is characteristic for cardiorenal diseases. […] At the start of the test, the substance to be tested was administered by means of gavage in a volume of 2-3 ml/kg of body weight of a suitable solvent PEG400). Control animals received only solvent (‘S’ or solvent in table 2 below). Controls and substance tests were carried out in parallel on the same day. Control groups and substance-dose groups each consisted of 6 to 10 animals. During the test, the urine excreted by the animals was continuously collected in a receiver on the base of the cage.
In this comparison, eight different administrations were performed (cf. groups A to H):
Group A received the solvent (PEG400) only. This group serves as control group.
Groups B, C and D received three increasing dosages of empagliflozin (SGLT2 inhibitor) only. It serves to detect the effects of the monotherapy with SGLT2 inhibitor.
Group E received a finerenone only. It serves to detect the effect of the monotherapy with finerenone.
Groups F, G and H received finerenone and the three doses of SGLT2 inhibitor in combination, respectively. It serves to detect the effect of the combined therapy with finerenone and empagliflozin (SGLT2 inhibitor) (combination according to the invention).
(§1) After the treatment, the urinary volume, urinary glucose, urinary sodium and potassium concentrations were measured.

healthy volunteers = conditions: dose-dependently induced during the first 24 h; cited from earlier work
[2] = test system: Zucker diabetic fatty (ZDF) rats; experiment: In vivo assay for detecting natriuretic activity in chronically treated Zucker diabetic fatty rats; set-up: species or system rat; conditions: for Urinary Glucose concentration / Urinary K+ concentration / Urinary Na+ concentration / Urinary Volume/ body weight: Table 3, 24 h urine, mean ± SEM; for Urinary Glucose concentration / Urinary K+ concentration / Urinary Na+ concentration / Urinary Volume/ body weight / urinary sodium excretion higher in comparison to solvent control group A: ZDF rats treated 9 weeks; for influence on urinary glucose vs solvent, in words / influence on urinary potassium vs solvent, in words / influence on urinary sodium vs solvent, in words / influence on urinary volume vs solvent, in words: ZDF rats, chronic monotherapy 3 and 10 mg/kg/day, 9 weeks
Excerpt: The Zucker diabetic fatty (ZDF) rat has a missense mutation in the gene coding the leptin receptor (fa/fa) and spontaneously develops insulin resistance, type 2 diabetes mellitus (T2DM), hyperlipidemia, moderate hypertension, and obesity, as well as progressive renal injury. Male homozygous animals develop diabetes mellitus from week 7 to 19 which is reflected in marked hyperglycemia. In addition to diabetic cardiac lesions (e.g. hypertrophy), renal pathology develops with proteinuria, mesangial expansion, macrophage infiltration, and interstitial fibrosis. Heterozygous animals are useful non-diabetic control animals since they develop neither obesity nor insulin resistance.
Male 6-7 weeks old obese (fa/fa) Zucker rats (Charles River) were placed on a high energy diet (Purina Rodent LabDiet 5008, PMI Nutrition. Richmond. Ind.) and were randomized to treatment groups or solvent group when the animals were hyperglycemic. Rats (n=14-16/group) received either solvent [ethanol/Solutol/H2O (10/40/50)] or test compounds in solvent once daily applied to (fa/fa) animals for 4 to 12 weeks.
During the experiment, the systolic blood pressure (determined by tail cuff), urine parameters (e.g. protein, glucose, electrolytes, creatinine, urea and uric acid) and blood plasma parameters (e.g. electrolytes, glucose, creatinine, urea and uric acid) were determined at regular intervals.
Histopathology is performed with cardiac and renal tissue from animals of treatment groups and placebo groups.
In this comparison, six different administrations were performed:
Group A received the solvent [ethanol/Solutol/H2O (10/40/50)] only. This group serves as control group.
Groups B and C received two increasing dosages of empagliflozin (SGLT2 inhibitor) only. It serves to detect the effects of the monotherapy with empagliflozin (SGLT2 inhibitor).
Groups D and E received increasing dosages of finerenone only. It serves to detect the effect of the monotherapy with finerenone.
Group F received a combination of the low dosages of empagliflozin (SGLT2 inhibitor) and finerenone, respectively. It serves to detect the effect of the combined therapy with finerenone and empagliflozin (SGLT2 inhibitor) (combination according to the invention).
as §1

[3] = test system: hypertensive and proteinuric L-NAME treated renin-transgenic (mRen2)27 rats; experiment: Non-diabetic cardiorenal rat model: L-NAME treated renin-transgenic (mRen2)27 rats; conditions: up to 7 weeks
Experimental: Cardiorenal morbidity and mortality was studied in hypertensive and proteinuric L-NAME (20 mg/L) treated renin-transgenic (mRen2)27 rats. […] Key outcome parameters included mortality, blood pressure, proteinuria, kidney histology and gene expression.
Female TGR(mRen2)27 renin rats aged 10 to 20 weeks are randomized to different pharmacological treatment groups and a placebo group. In addition, the nitrogen monoxide synthase inhibitor L-NAME is administered via the drinking water in a concentration of 20 to 100 mg/l. During the entire experiment, drinking water and feed are available ad libitum to the animals. The substances are administered via the feed or daily by gavage for 4-10 weeks. Animals treated in the same way but receiving either only the solvent or the feed without test substance serve as placebo group. During the experiment, the systolic blood pressure is determined at regular intervals using a tail cuff, and proteinuria (expressed as ratio of urinary protein concentration per urinary creatinine concentration) and urine electrolyte composition are determined by collecting the urine in metabolic cages, and mortality is registered on a daily base.
The urine volume per collection time was determined separately for each animal, and the concentration of urinary glucose and electrolyte ions excreted in the urine was measured by standard methods by a clinical-chemical analyzer system (ADVIA 2400, Siemens). The urine was typically collected for 24 hours in metabolic cages.

[4] = Table 5, monotherapy 0.03 mg/kg oral
[5] = Table 5, monotherapy 0.3 mg/kg oral
[6] = Table 5, monotherapy 3 mg/kg oral
[7] = Table 5 study, monotherapy 3 mg/kg
[8] = Table 5 study, monotherapy: dapagliflozin 0.03 and 0.3 mg/kg, finerenone 1 mg/kg
[9] = Table 5 study, monotherapy: dapagliflozin all doses (0.03, 0.3, 3 mg/kg), finerenone 1 mg/kg
[10] = Table 2, monotherapy 1 mg/kg oral
[11] = Table 2, monotherapy 3 mg/kg oral
[12] = Table 2, monotherapy 10 mg/kg oral
[13] = Table 2 study, monotherapy: empagliflozin 1, 3, 10 mg/kg, finerenone 1 mg/kg
[14] = Table 4, monotherapy 1 mg/kg oral
[15] = Table 4 study, monotherapy: canagliflozin 1 and 3 mg/kg, finerenone 1 mg/kg
[16] = Table 5, monotherapy 1 mg/kg oral

CCOc1ccc(Cc2cc([C@@H]3O[C@H](CO)[C@@H](O)[C@H](O)[C@H]3O)ccc2Cl)cc1 [dapagliflozin, (2S,3R,4R,5S,6R)-2-[4-chloro-3-[(4-ethoxyphenyl)methyl]phenyl]-6-(hydroxymethyl)oxane-3,4,5-triol]
Urinary Glucose concentration [1, 4]: 0.72 ± 0.18 mmol | Urinary K+ concentration [1, 4]: 2.21 ± 0.16 mmol | Urinary Na+ concentration [1, 4]: 0.19 ± 0.05 mmol | Urinary Volume/ body weight [1, 4]: 39.17 ± 4.08 mL/kg | Urinary Glucose concentration [1, 5]: 5.26 ± 0.29 mmol | Urinary K+ concentration [1, 5]: 2.43 ± 0.07 mmol | Urinary Na+ concentration [1, 5]: 0.19 ± 0.04 mmol | Urinary Volume/ body weight [1, 5]: 38.84 ± 3.94 mL/kg | Urinary Glucose concentration [1, 6]: 9.71 ± 0.36 mmol | Urinary K+ concentration [1, 6]: 2.34 ± 0.10 mmol | Urinary Na+ concentration [1, 6]: 0.29 ± 0.05 mmol | Urinary Volume/ body weight [1, 6]: 48.72 ± 1.53 mL/kg | influence on urinary sodium, in words [1, 7]: increase | influence on urinary volume, in words [1, 7]: increase | influence on urinary potassium, in words [1, 8]: no influence | influence on urinary sodium, in words [1, 8]: no influence | influence on urinary volume, in words [1, 8]: no influence | influence on urinary glucose, in words [1, 9]: strong increase | natriuresis, in words (healthy volunteers): returned to baseline after 13 days of intervention

OC[C@H]1O[C@@H](c2ccc(Cl)c(Cc3ccc(O[C@H]4CCOC4)cc3)c2)[C@H](O)[C@@H](O)[C@@H]1O [empagliflozin, (2S,3R,4R,5S,6R)-2-[4-chloro-3-[[4-[(3S)-oxolan-3-yl]oxyphenyl]methyl]phenyl]-6-(hydroxymethyl)oxane-3,4,5-triol]
Urinary Glucose concentration [1, 10]: 0.34 ± 0.10 mmol | Urinary K+ concentration [1, 10]: 1.66 ± 0.11 mmol | Urinary Volume/ body weight [1, 10]: 27.80 ± 3.58 mL/kg | Urinary Glucose concentration [1, 11]: 1.21 ± 0.21 mmol | Urinary K+ concentration [1, 11]: 1.74 ± 0.15 mmol | Urinary Na+ concentration [1, 11]: 0.13 ± 0.02 mmol | Urinary Volume/ body weight [1, 11]: 22.96 ± 2.75 mL/kg | Urinary Glucose concentration [1, 12]: 4.26 ± 0.59 mmol | Urinary K+ concentration [1, 12]: 1.85 ± 0.11 mmol | Urinary Na+ concentration [1, 12]: 0.17 ± 0.03 mmol | Urinary Volume/ body weight [1, 12]: 28.45 ± 1.91 mL/kg | influence on urinary glucose, in words [1, 13]: dose-dependent and strong increase | influence on urinary potassium, in words [1, 13]: no influence | influence on urinary sodium, in words [1, 13]: no influence | influence on urinary volume, in words [1, 13]: no influence | Urinary Glucose concentration ([2]; monotherapy 3 mg/kg): 321.55 ± 22.78 mmol | Urinary K+ concentration ([2]; monotherapy 3 mg/kg): 2.22 ± 0.13 mmol | Urinary Na+ concentration ([2]; monotherapy 3 mg/kg): 1.47 ± 0.10 mmol | Urinary Volume/ body weight ([2]; monotherapy 3 mg/kg): 99.98 ± 7.12 mL/kg | Urinary Glucose concentration ([2]; monotherapy 10 mg/kg): 317.16 ± 25.10 mmol | Urinary K+ concentration ([2]; monotherapy 10 mg/kg): 2.64 ± 0.20 mmol | Urinary Na+ concentration ([2]; monotherapy 10 mg/kg): 2.05 ± 0.27 mmol | Urinary Volume/ body weight ([2]; monotherapy 10 mg/kg): 110.38 ± 4.55 mL/kg | urinary sodium excretion higher in comparison to solvent control group A ([2]; monotherapy 3 mg/kg): 27.2% | influence on urinary glucose vs solvent, in words [2]: increases | influence on urinary potassium vs solvent, in words [2]: increases | influence on urinary sodium vs solvent, in words [2]: increases | influence on urinary volume vs solvent, in words [2]: increases | proteinuria reduction ([3]; 3 mg/kg once daily orally): −38% | proteinuria reduction ([3]; 10 mg/kg once daily orally): −64% | glucosuric action, in words ([3]; once daily orally): strongly glucosoric | renal histology parameters / renal lesions, in words ([3]; once daily orally): comparable protection from renal lesions at higher dosages

CCOc1ncc(C)c2c1[C@H](c1ccc(C#N)cc1OC)C(C(N)=O)=C(C)N2 [finerenone, (S)-4-(4-cyano-2-methoxyphenyl)-5-ethoxy-2,8-dimethyl-1,4-dihydro-1,6-naphthyridin-3-carboxamide]
Urinary Glucose concentration [1, 10]: b.d.l. | Urinary K+ concentration [1, 10]: 1.46 ± 0.12 mmol | Urinary Na+ concentration [1, 10]: 0.43 ± 0.03 mmol | Urinary Volume/ body weight [1, 10]: 21.90 ± 1.86 mL/kg | influence on urinary glucose, in words [1, 13]: no influence | influence on urinary potassium, in words [1, 13]: no influence | influence on urinary sodium, in words [1, 13]: increase | influence on urinary volume, in words [1, 13]: no influence | Urinary Glucose concentration [1, 14]: b.d.l. | Urinary K+ concentration [1, 14]: 1.76 ± 0.11 mmol | Urinary Na+ concentration [1, 14]: 0.27 ± 0.06 mmol | Urinary Volume/ body weight [1, 14]: 29.32 ± 2.94 mL/kg | influence on urinary potassium, in words [1, 15]: no influence | influence on urinary sodium, in words [1, 15]: weak increase | influence on urinary volume, in words [1, 15]: no influence | influence on urinary glucose, in words ([1]; Table 4 study, monotherapy: canagliflozin all doses (1, 3, 10 mg/kg), finerenone 1 mg/kg): no influence | Urinary Glucose concentration [1, 16]: b.d.l. | Urinary K+ concentration [1, 16]: 1.84 ± 0.10 mmol | Urinary Na+ concentration [1, 16]: 0.33 ± 0.43 mmol | Urinary Volume/ body weight [1, 16]: 23.44 ± 1.62 mL/kg | influence on urinary potassium, in words [1, 8]: no influence | influence on urinary sodium, in words [1, 8]: increase | influence on urinary volume, in words [1, 8]: no influence | influence on urinary glucose, in words [1, 9]: no influence | Urinary Glucose concentration ([2]; monotherapy 3 mg/kg): 291.98 ± 19.11 mmol | Urinary K+ concentration ([2]; monotherapy 3 mg/kg): 1.94 ± 0.14 mmol | Urinary Na+ concentration ([2]; monotherapy 3 mg/kg): 1.39 ± 0.12 mmol | Urinary Volume/ body weight ([2]; monotherapy 3 mg/kg): 81.84 ± 11.99 mL/kg | Urinary Glucose concentration ([2]; monotherapy 10 mg/kg): 272.62 ± 22.51 mmol | Urinary K+ concentration ([2]; monotherapy 10 mg/kg): 1.75 ± 0.06 mmol | Urinary Na+ concentration ([2]; monotherapy 10 mg/kg): 1.30 ± 0.08 mmol | Urinary Volume/ body weight ([2]; monotherapy 10 mg/kg): 56.82 ± 2.59 mL/kg | urinary sodium excretion higher in comparison to solvent control group A ([2]; monotherapy 3 mg/kg): 20.1% | influence on urinary glucose vs solvent, in words [2]: no influence | influence on urinary potassium vs solvent, in words [2]: no influence | influence on urinary sodium vs solvent, in words [2]: no influence | influence on urinary volume vs solvent, in words [2]: no influence | proteinuria reduction ([3]; 1 mg/kg once daily orally): −27% | proteinuria reduction ([3]; 3 mg/kg once daily orally): −87% | renal histology parameters / renal lesions, in words ([3]; once daily orally): comparable protection from renal lesions at higher dosages | systolic blood pressure, in words ([3]; once daily orally): significantly decreased
